Earlier results on two molecules are cited in patent EP4407007A1, “ECO-FRIENDLY INK FORMULATION, PARTICULARLY FOR BALLPOINT PENS AND ASSOCIATED BALLPOINT PEN CARTRIDGE” (Reinol S.r.l., priority 2023, dated 2024).

The conditions of data set [1]: hazard category.
The conditions of data set [2]: hazard category. This is another data set of the same source.
For the next data set, the system named is Fish. To be noted: hazard category.

In the case of `OCc1ccccc1` [benzyl alcohol], the “Acute toxicity Oral inhalation” value in data set [1] is “Category 4”. Besides, the Skin irritation entry in data set [2] is given as “Category 2”. The “Aquatic toxicity Fish” value with Fish was “Category 2”.
For `CC1(C)OCC(CO)O1` (racemic) [2,2-dimethyl-1,3-dioxolane-4-yl-methanol], in data set [1], the “Acute toxicity Oral inhalation” value is “Unclassified”. The Skin irritation entry in data set [2] was “Unclassified”. Further, in the data set with Fish, the “Aquatic toxicity Fish” value is listed as “Unclassified”.
